We go through two molecules from patent publication EP0863134A1, “2-(3,5-difluorophenyl)-3-(4-(methyl-sulfonyl)phenyl)-2-cyclopenten-1-one useful as an inhibitor of cyclooxygenase-2” (MERCK FROSST CANADA INC., priority 1997, dated 1998).

In experiment [1] the target is T1, COX-2 (Homo sapiens, UniProt P35354).
T1 construct: endogenous in cells; host or cells: fresh heparinized human whole blood from volunteers, LPS-stimulated
T1 sequence (P35354 18-604): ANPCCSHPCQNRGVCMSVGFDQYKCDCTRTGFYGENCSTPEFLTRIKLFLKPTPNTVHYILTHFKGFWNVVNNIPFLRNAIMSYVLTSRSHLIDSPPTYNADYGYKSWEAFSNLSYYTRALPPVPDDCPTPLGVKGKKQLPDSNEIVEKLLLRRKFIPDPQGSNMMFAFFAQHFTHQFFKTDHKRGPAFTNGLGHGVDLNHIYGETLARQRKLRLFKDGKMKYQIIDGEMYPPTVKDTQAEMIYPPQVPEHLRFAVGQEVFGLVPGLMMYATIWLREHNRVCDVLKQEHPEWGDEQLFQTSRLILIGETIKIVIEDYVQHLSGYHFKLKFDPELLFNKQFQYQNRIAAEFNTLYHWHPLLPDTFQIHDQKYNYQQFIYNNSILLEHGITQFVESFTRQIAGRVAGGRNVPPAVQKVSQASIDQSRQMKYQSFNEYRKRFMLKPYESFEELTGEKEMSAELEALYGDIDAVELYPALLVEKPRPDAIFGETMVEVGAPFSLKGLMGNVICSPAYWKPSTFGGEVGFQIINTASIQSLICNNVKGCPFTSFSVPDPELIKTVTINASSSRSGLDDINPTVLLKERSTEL
The experiment is described as follows: Whole cell assay for COX-2 using CHO transfected cell line CHO[hCOX-2]. Format: cell-based. Conditions: CHO[hCOX-2] cells, 10 µM AA, PGE2. The method, then: (§1) Chinese hamster ovary (CHO) cell lines which have been stably transfected with an eukaryotic expression vector pCDNAIII containing either the human COX-1 or COX-2 cDNA's are used for the assay. These cell lines are referred to as CHO [hCOX-1] and CHO [hCOX-2], respectively. For cyclooxygenase assays, CHO[hCOX-1] cells from suspension cultures and CHO[hCOX-2] cells prepared by trypsinization of adherent cultures are harvested by centrifugation (300 x g, 10 min) and washed once in HBSS containing 15 mM HEPES, pH 7.4, and resuspended in HBSS, 15 mM HEPES, pH 7.4, at a cell concentration of 1.5 x 10^6 cells/ml. Drugs to be tested are dissolved in DMSO to 66.7-fold the highest test drug concentration. Compounds are typically tested at 8 concentrations in duplicate using serial 3-fold serial dilutions in DMSO of the highest drug concentration. […] Cyclooxygenase activity in the absence of test compounds is determined as the difference in PGE2 levels of cells challenged with arachidonic acid versus the PGE2 levels in cells mock-challenged with ethanol vehicle. Inhibition of PGE2 synthesis by test compounds is calculated as a percentage of the activity in the presence of drug versus the activity in the positive control samples. […] In the assays, inhibition is determined by measuring the amount of a prostaglandin synthesized in the presence and absence of a putative inhibitor. […]

Experiment [2] concerns the target T1, COX-2. The experiment is described as follows: Human whole blood assay, COX-2 (LPS-induced PGE2 production). Conditions: LPS-induced PGE2, 24 hours at 37°C. Format: cell-based. Here is the method:
(§2) Human whole blood provides a protein and cell-rich milieu appropriate for the study of biochemical efficacy of anti-inflammatory compounds such as selective COX-2 inhibitors. […] This is consistent with the observation that COX-2 inhibitors have no effect on PGE2 production in normal blood. These inhibitors are active only after incubation of human whole blood with LPS, which induces COX-2. This assay can be used to evaluate the inhibitory effect of selective COX-2 inhibitors on PGE2 production. As well, platelets in whole blood contain a large amount of the COX-1 enzyme. Immediately following blood clotting, platelets are activated through a thrombin-mediated mechanism. […] Thus, the effect of test compounds on TxB2 levels following blood clotting can be examined and used as an index for COX-1 activity. Therefore, the degree of selectivity by the test compound can be determined by measuring the levels of PGE2 after LPS induction (COX-2) and TxB2 following blood clotting (COX-1) in the same assay. Fresh blood is collected in heparinized tubes by venipuncture from both male and female volunteers. The subjects have no apparent inflammatory conditions and have not taken any NSAIDs for at least 7 days prior to blood collection. […] In the assays, inhibition is determined by measuring the amount of a prostaglandin synthesized in the presence and absence of a putative inhibitor. […]

In a further experiment the test system is Rat Paw edema. The experiment is described as follows: Rat paw edema assay (carrageenan). Format: in vivo, Male Sprague-Dawley rats. Conditions: po, 1 hr before carrageenan, paw volume 3 hr later. The method, then:
Male Sprague-Dawley rats (150-200 g) are fasted overnight and are given po, either vehicle (1% methocel or 5% Tween 80) or a test compound. One hr later, a line is drawn using a permanent marker at the level above the ankle in one hind paw to define the area of the paw to be monitored. The paw volume (V0) is measured using a plethysmometer (Ugo-Basile, Italy) based on the principle of water displacement. The animals are then injected subplantarly with 50 µl of 1% carrageenan solution in saline (FMC Corp, Maine) into the paw using an insulin syringe with a 25-gauge needle (i.e. 500 µg carrageenan per paw). Three hr later, the paw volume (V3) is measured and the increases in paw volume (V3 - VO) are calculated. The animals are sacrificed by CO2 asphyxiation and the absence or presence of stomach lesions scored. Data is compared with the vehicle-control values and percent inhibition calculated. All treatment groups are coded to eliminate observer bias.
Compounds of the present invention are inhibitors of COX-2 and are thereby useful in the treatment of COX-2 mediated diseases as enumerated above. The activities of compound A against cyclooxygenase may be seen in the representative results shown below in the Table. In the assays, inhibition is determined by measuring the amount of a prostaglandin synthesized in the presence and absence of a putative inhibitor. […]
(Carrageenan injected into the paw causes an acute inflammation.)

The target in experiment [3] is T2, COX-1 (Homo sapiens, UniProt P23219). The experiment is described as follows: Assay of COX-1 activity from U937 cell microsomes. Conditions: PGE2. Further details: endogenous in cells; host or cells: U937 cells, 100,000 x g microsomal fraction. Type of experiment: biochemical. Here is the method: U 937 cells are pelleted by centrifugation at 500 x g for 5 min and washed once with phosphate-buffered saline and repelleted. Cells are resuspended in homogenization buffer consisting of 0.1 M Tris-HCl, pH 7.4, 10 mM EDTA, 2 µg/ml leupeptin, 2 µg/ml soybean trypsin inhibitor, 2 µg/ml aprotinin and 1 mM phenyl methyl sulfonyl fluoride. The cell suspension is sonicated 4 times for 10 sec and is centrifuged at 10,000 x g for 10 min at 4° C. The supernatant is centrifuged at 100,000 x g for 1 hr at 4° C. The 100,000 x g microsomal pellet is resuspended in 0.1 M Tris-HCl, pH 7.4, 10 mM EDTA to approximately 7 mg protein/ml and stored at -80° C. Microsomal preparations are thawed immediately prior to use, subjected to a brief sonication, and then diluted to a protein concentration of 125 µg/ml in 0.1 M Tris-HCl buffer, pH 7.4 containing 10 mM EDTA, 0.5 mM phenol, 1 mM reduced glutathione and 1 µM hematin. Assays are performed in duplicate in a final volume of 250 µl. […] Samples are neutralized with 25 µl of 1 N NaOH prior to quantitation of PGE2 content by radioimmunoassay (Dupont-NEN or Amersham assay kits). […] In the assays, inhibition is determined by measuring the amount of a prostaglandin synthesized in the presence and absence of a putative inhibitor. […]
T2 sequence (P23219 24-599): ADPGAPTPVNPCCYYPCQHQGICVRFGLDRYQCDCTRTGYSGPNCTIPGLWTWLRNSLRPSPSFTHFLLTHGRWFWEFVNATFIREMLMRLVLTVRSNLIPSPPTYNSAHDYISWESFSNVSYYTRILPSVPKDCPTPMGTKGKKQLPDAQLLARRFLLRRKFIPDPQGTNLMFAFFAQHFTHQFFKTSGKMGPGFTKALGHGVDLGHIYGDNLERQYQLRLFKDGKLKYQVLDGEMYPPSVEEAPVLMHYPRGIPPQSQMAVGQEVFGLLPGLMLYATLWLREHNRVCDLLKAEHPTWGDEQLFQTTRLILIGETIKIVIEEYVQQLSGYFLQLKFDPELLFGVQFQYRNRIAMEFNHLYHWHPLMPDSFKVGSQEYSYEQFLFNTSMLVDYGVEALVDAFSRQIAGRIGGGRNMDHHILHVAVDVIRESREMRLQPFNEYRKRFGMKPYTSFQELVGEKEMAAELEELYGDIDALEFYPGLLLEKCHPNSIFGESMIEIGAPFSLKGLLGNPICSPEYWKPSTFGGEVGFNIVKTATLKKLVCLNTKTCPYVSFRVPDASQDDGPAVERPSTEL

The target of experiment [4] is T2, COX-1. The experiment is described as follows: Whole cell assay for COX-1 using CHO transfected cell line CHO[hCOX-1]. Type of experiment: cell-based. On the set-up: platelets in whole blood contain a large amount of the COX-1 enzyme; endogenous in cells; host or cells: platelets in fresh human whole blood without anticoagulant. Conditions: CHO[hCOX-1] cells, 0.5 µM AA, PGE2. Here is the method: as §1

The target in experiment [5] is T2, COX-1. Briefly: Human whole blood assay, COX-1 (clotting-induced TxB2 production). Type of experiment: cell-based. Further details: platelets in whole blood contain a large amount of the COX-1 enzyme; endogenous in cells; host or cells: platelets in fresh human whole blood without anticoagulant. Conditions: clotting-induced TxB2, 1 hour at 37°C. The method, then:
as §2, with “into vacutainers containing” for “in heparinized tubes by venipuncture from both male and female volunteers. The subjects have”, “anticoagulants.” for “apparent inflammatory conditions and have not taken any NSAIDs for at least 7 days prior to blood collection.”

Some results are limits rather than exact numbers.

In the case of `CS(=O)(=O)c1ccc(C2=C(c3cc(F)cc(F)c3)C(=O)CC2)cc1` [Compound A, 2-(3,5-difluorophenyl)-3-(4-(methylsulfonyl)phenyl)-2-cyclopenten-1-one], the IC50 against COX-2 [1] is 30 nM; on COX-2 [2], 450 nM; against COX-1 [3], 11 µM; against COX-1 [4], greater than 50 µM; against COX-1 [5], 77 µM. The 50% effect level in the experiment on Rat Paw edema (ED50) was put at a dose of 2.6 mg/kg.

Take `CS(=O)(=O)c1ccc(C2=C(c3ccc(F)cc3)C(=O)CC2)cc1` [Compound B]: the IC50 against COX-2 [1] turned out to be 20 nM; against COX-2 [2] it was 120 nM; against COX-1 [3], 0.45 µM; at COX-1 [4] (unit inferred), 17 µM; against COX-1 [5], 4.4 µM. In addition, in the experiment on Rat Paw edema, the ED50 was 3 mg/kg.

What is called IC50 is the concentration at which inhibition is half-maximal. Usually ED50 stands for the dose that gives a 50% effect, or the effect in half of the subjects.
